# Data: US5541232A, “Treatment of multidrug resistant diseases” (Chemex Pharmaceuticals, Inc., priority 1994, dated 1996)
# “Also recorded” adds a separate entry of the source. Read-outs that look alike come from different tables or passages of the source.
# Legend:
# LOX-IMVI Melanoma cells = experiment: in vitro cytotoxicity anti tumor activity; assay type: cell-based; conditions: Homo sapiens, read-out: IC50
# SNB Glioblastoma cells = experiment: in vitro cytotoxicity anti tumor activity; assay type: cell-based; conditions: read-out: IC50
# [1] = test system: OVCAR3 ovarian cancer cells; experiment: in vitro cytotoxicity anti tumor activity; assay type: cell-based; conditions: Homo sapiens, read-out: IC50
# [2] = test system: Hs 68 Newborn Foreskin Fibroblasts; experiment: in vitro cytotoxicity, normal cells; assay type: cell-based; conditions: Homo sapiens, read-out: IC50
# [3] = test system: KB-3-1 human cervical carcinoma cells; experiment: inhibition of colony formation, KB-3-1; assay type: cell-based; conditions: KB 3-1, 240 h, read-out: IC50 (Masoprocol), 50% inhibition of colony formation, 10 days, 37° C., parenthesis: standard deviation
# Excerpt: (§1) To investigate whether masoprocol modulates multidrug resistance, a line of multidrug resistant (GRC-1) cells which were derived from parenteral drug sensitive human cervical carcinoma (KB-3-1) cells by transfection of the mdr1 genes were employed. Such transfection was by the method set forth in Choi, et al., Cell 53:519-529, 1989. These cell lines differ only with respect to the over-expression of P-glycoprotein. These tests were designed to examine whether masoprocol modulates tumor cell drug resistance by interfering with P-glycoprotein function. […] See, Regulation of initial vinblastine influx by P-glycoprotein, Shalinsky, et al., cited above.
# Masoprocol was provided by Chemex Pharmaceuticals, Inc. (Fort Lee, N.J.). Tritiated vinblastine ([^3 H]VBL) (10 Ci mmol^-1) was purchased from Moravek Biochemicals (Brea, Calif.), stored in the dark at -80° C. and protected from light during the experiments. […]
# (§2) First, cells which had been seeded at 200-300 cells/dish were incubated in media containing masoprocol or VBL. After an incubation period of 10 days at 37° C. the cells were fixed with methanol and stained with Giemsa, and the number of colonies per dish were counted and expressed as a percent of the number of colonies in control conditions. […] Parenthesis indicate standard deviations determined from replicate experiments.
# P-glycoprotein = P-glycoprotein substrate; assay type: cell-based, human; conditions: inferred from colony formation in GRC-1 vs KB-3-1
# Excerpt: as §1, §2
# [4] = test system: KB-3-1 human cervical carcinoma cells; experiment: modulation of VBL toxicity (colony formation), KB-3-1; assay type: cell-based; conditions: 25 μM masoprocol, 10 days, 37° C.
# Experimental: Drug-sensitive KB-3-1 cells and the drug resistant subline (KB-GRC-1) were obtained from Dr. Igor Roninson (University of Illinois, College of Medicine, Chicago, Ill.). Cells were maintained in Dulbecco's modified Eagle's medium supplemented with 10% fetal bovine serum and 2 mM glutamine. The KB-GRC-1 cells were maintained in medium supplemented with 6 ng/ml colchicine.
# To test the modulation of VBL toxicity by masoprocol, cells which had been seeded at 200-300 cells/dish were incubated in media containing various concentrations of VBL in the absence or presence of 25 μM masoprocol. After an incubation period of 10 days at 37° C. the cells were fixed and stained, and the number of colonies per dish were counted and expressed as a percent of the number of colonies formed in control conditions. 1.
# [5] = test system: KB-3-1 human cervical carcinoma cells; experiment: steady state accumulation of VBL, KB-3-1; assay type: cell-based
# Experimental: At the desired time, the medium was aspirated and cells washed 5 times with ice cold PBS. Cells were digested overnight in 1N NaOH, at which time aliquots were used to determine protein content and radioactivity. The final concentration of VBL was 6 nM.
# Cells were incubated for one hour with media containing either tritiated vinblastine (^3 H]VBL) alone or containing [^3 H]VBL with 50 μM masoprocol. Cells were then washed with ice cold PBS and the amount of VBL accumulated in cells was determined using a scintillation counter. In FIG. 1 each data point represents the mean of replicate experiments performed with duplicate cultures. Vertical bars are +/- S.D.
# [6] = test system: KB-3-1 human cervical carcinoma cells; experiment: initial influx of VBL, KB-3-1; assay type: cell-based; conditions: 50 μM masoprocol added concurrently with VBL, 3 to 24 seconds; FIG. 4b
# Experimental: (§3) A further test was conducted to show the effect of masoprocol on the initial influx of VBL. Cells were exposed to media containing [^3 H]VBL with and without 50 μM masoprocol. After incubation times ranging from 3 seconds to 24 seconds, the media was removed. The amount of VBL taken up by the cells was determined as described in A. The data was summarized from four replicate experiments. FIG. 4apresents the results for the GRC-1 cell line, and FIG. 4b for the KB-3-1 cell line.
# [7] = test system: GRC-1 multidrug resistant human cervical carcinoma cells; experiment: initial influx of VBL, GRC-1; assay type: cell-based; conditions: 50 μM masoprocol added concurrently with VBL, 3 to 24 seconds; FIG. 4a
# Experimental: as §3
# [8] = test system: KB-3-1 human cervical carcinoma cells; experiment: modulation of cisplatin uptake; assay type: cell-based; conditions: one hour, 5 μM cisplatin; FIG. 5
# Experimental: Subconfluent cultures of KB-3-1 cells were incubated with [^3 H]cisplatin (cis-DDP) in culture medium or in medium containing the indicated concentrations of masoprocol as presented in FIG. 5. After one hour incubation, the medium was aspirated and the cells washed 5 times with ice cold PBS. Cells were digested overnight in 1N NaOH, at which time aliquots were used to determine protein content and radioactivity. The final concentration of cisplatin was 5 μM. Each data point represents the mean of triplicate dishes from replicate experiments. The vertical bars are +/- standard deviations.
# malignant melanoma = conditions: in vivo; cited from earlier work
# [9] = test system: several types of cancer cells; conditions: Cancer Chemotherapy National Service Center; cited from earlier work
# [10] = test system: benign, paramalignant and malignant growth of the skin; conditions: in combination with ionic zinc; cited from earlier work
# [11] = test system: human breast adenocarcinoma; conditions: cited from earlier work
# [12] = Continuous Drug Exposure, observation at 70 hours
smiles,measurement,setting,value
"C[C@H](Cc1ccc(O)c(O)c1)[C@@H](C)Cc1ccc(O)c(O)c1 [Masoprocol, meso-1,4-bis (3,4-dihydroxyphenyl)-2,3-dimethylbutane]",IC50,"LOX-IMVI Melanoma cells; 1 h, One Hour Pulse Treatment",38.4 µM
same,IC50,LOX-IMVI Melanoma cells; [12],0.08 µM
same,IC50,"SNB Glioblastoma cells; 1 h, One Hour Pulse Treatment",312 µM
same,IC50,SNB Glioblastoma cells; [12],0.08 µM
same,IC50,"[1]; OVCAR-3, 1 h, One Hour Pulse Treatment",258 µM
same,IC50,"[1]; OVCAR-3, Continuous Drug Exposure, observation at 70 hours",35.9 µM
same,IC50,"[2]; Hs68, 1 h, One Hour Pulse Treatment",178 µM
same,IC50,"[2]; Hs68, Continuous Drug Exposure, observation at 70 hours",18 µM
same,IC50,[3],43.6 µM
same,P-glycoprotein substrate,P-glycoprotein,not a substrate for P-glycoprotein
same,effect on VBL cytotoxicity / colony formation,[4],increase in the cytotoxicity of VBL; also recorded: increases the cytotoxic effect of VBL
same,"steady state accumulation of VBL, compared with verapamil",[5]; 50 μM masoprocol,comparable to that of 10 μM verapamil
same,steady state accumulation of VBL,"[5]; one hour, masoprocol with [3H]VBL",dose-dependent increase in the steady state accumulation of VBL; also recorded: increases the steady state accumulation of VBL
same,initial VBL uptake (influx),[6],substantial increase in initial VBL uptake; also recorded: effective modulator of initial VBL influx; also recorded: promotes the initial uptake of VBL
same,initial VBL uptake (influx),[7],substantial increase in initial VBL uptake; also recorded: effective modulator of initial VBL influx; also recorded: promotes the initial uptake of VBL
same,increase in uptake of cisplatin,[8],about 25%
same,result against malignant melanoma,malignant melanoma,positive result
same,result in screening against cancer cells,[9],negative results
same,effectiveness in treatment of growth of the skin,[10],effective
same,effectiveness against human breast adenocarcinoma,[11],particularly effective
